Measured values: patent US20220072061A1, “SUBSTANCE FOR TREATMENT OR PREVENTION OF DISEASES, METHOD FOR DESIGNING THE SAME, AND METHOD FOR PREPARING THE SAME” (priority 2018, published 2022)
Where a name gives a salt, the structure may show the parent alone.

Key:
patients with depression = assay: Clinical study against depression; type: in vivo, human
Method: 1. Clinical data: 60 cases (in total) of outpatients and inpatients with depression were enrolled, and randomly divided into a treatment group of 30 patients and a control group of 30 patients. There was no significant difference between the two groups in clinical data.
2. Diagnosis criteria: The diagnosis criteria for depression from The Diagnostic and Statistical Manual of Mental Disorders.
3. […] Patients in the control group were treated with fluoxetine, the initial and treatment doses both being 20 mg/day, for a course of 4 weeks.
4. Efficacy evaluation criteria: After 4 weeks of treatment, the patients were scored by a psychiatrist based on the Hamilton Depression Rating Scale HAMD-17. “Cured” means a HAMD-17 total score <7; “effective” means a HAMD-17 total score of 8-17; and “ineffective” means a HAMD-17 total score>17.
(§1) Total effective rate=cured rate+effective rate.

patients with menoxenia = assay: Clinical study against menoxenia; type: in vivo, human
Text: 1. Clinical data: 60 cases (in total) of outpatients and inpatients with menoxenia were enrolled, and randomly divided into a treatment group of 30 patients and a control group of 30 patients. There was no significant difference between the two groups in clinical data.
2. Diagnosis criteria: Symptoms include disorders in the menstrual cycle and menstrual period, excessive or insufficient bleeding during menstruation, and abdominal pain before and after menstruation.
3. […] Patients in the control group were orally given clomifene citrate capsules (NMPA Approval No. H31021107), 50 mg/day, started on day 5 since menstruation, for 2 consecutive months.
4. Efficacy evaluation criteria: The efficacy evaluation is based on the relevant standards in Guiding Principles for Clinical Research of New Chinese Medicines.
as §1

hypertensive patients = assay: Clinical study against hypertension; conditions: human, in vivo
Method: 1. Clinical data: In this example, totally 46 hypertensive patients were treated and observed clinically, including 25 males and 21 females, 18-75 years old, with a course of disease of 0.5 to 30 years, who were randomly divided into a treatment group of 23 patients and a control group of 23 patients. There was no significant difference between the two groups in clinical data.
2. Diagnosis criteria: According to the Guidelines for Diagnosis of Hypertension in China (2010), hypertension can be diagnosed if the systolic pressure≥140 mmHg and/or the diastolic pressure≥90 mmHg. Grade 1 hypertension: systolic pressure 140 to 159 mmHg and/or diastolic pressure 90 to 99 mmHg; Grade 2 hypertension: systolic pressure 160 to 179 mmHg and/or diastolic pressure 100 to 109 mmHg; Grade 3 hypertension: systolic pressure≥180 mmHg and/or diastolic pressure≥110 mmHg.
3. […] Patients in the control group orally took Levamlodipine Beslate and losartan potassium tablets, 3 times a day under supervision of a physician, and the dose was maintained for 3 months or more.
(§2) 4. […] Total effective rate=cured rate+markedly effective rate+effective rate.

[1] = test system: patients with allergic rhinitis; assay: Clinical application trial for treatment of allergic rhinitis; type: in vivo, human
Method: There was no significant difference between the two groups in clinical data and conditions. […] Diagnosis criteria: 2 or more clinical symptoms such as sneezing, clear water-like nasal discharge, nasal congestion, and nasal itching, appearing continuously or continually for 1 hour or more every day. It may be accompanied by eye symptoms such as eye itching and conjunctival hyperemia. Common signs often include pale nasal mucosa, edema, and watery nasal discharge. Positive in the allergen skin prick test. 3. […] 4. […] Total effective rate=cured rate+effective rate.

patients with urticaria = assay: Clinical study against urticaria; type: in vivo, human
Method: 1. […]. There was no significant difference between the two groups in clinical data.
3. […] The patients in the control group orally took loratadine 5 mg per time, once day, for 30 days.
as §2

[2] = test system: patients with ankylosing spondylitis; assay: Clinical study in patients with ankylosing spondylitis; type: in vivo, human; conditions: number of patients (14 treatment, 13 control); after 1 month
Text: 1. […] 2. […] 3. […] 4. Efficacy evaluation criteria:

[3] = number of patients of 30, allergic rhinitis
[4] = number of patients of 28, chronic urticaria

Q: With `CNCCC(Oc1ccc(C(F)(F)F)cc1)c1ccccc1` (centres unmarked) [fluoxetine] as the compound, how does the “Total effective rate (%)” value (patients with depression; cured rate+effective rate, depression, after 4 weeks) read?
A: 76.67%

Q: And the Cured (patients with depression; number of patients of 30, HAMD-17 total score <7 after 4 weeks)?
A: 9

Q: What about the Ineffective (patients with depression; number of patients of 30, HAMD-17 total score >17 after 4 weeks) of the same compound?
A: 7

Q: And the Effective (patients with depression; number of patients of 30, HAMD-17 total score of 8-17 after 4 weeks)?
A: 14

Q: What does the source list for `CCN(CC)CCOc1ccc(C(=C(Cl)c2ccccc2)c2ccccc2)cc1` [clomifene citrate capsules, clomifene citrate]?
A: Total effective rate (%) (patients with menoxenia; after treatment): 66.67%; Cured (patients with menoxenia; number of patients of 30): 0; Effective (patients with menoxenia; number of patients of 30): 10; Markedly effective (patients with menoxenia; number of patients of 30): 10

Q: With “Levamlodipine Beslate and losartan potassium” as the compound, how does the adverse drug reactions (hypertensive patients) read?
A: 6 cases

Q: And the drug dependence (hypertensive patients)?
A: 4 cases

Q: Which recurrence ([1]; 6-month follow-up / after drug discontinuance) does the source give for `CCOC(=O)N1CCC(=C2c3ccc(Cl)cc3CCc3cccnc32)CC1` [loratadine] here?
A: allergic symptoms appeared after contact with allergens after drug discontinuance

Q: And the “drug adverse reaction or drug dependence” value ([1]; during the treatment, of 30 patients)?
A: 5 cases

Q: And the Effective [1, 3]?
A: 20

Q: And the Ineffective [1, 3]?
A: 10

Q: What about the Cured ([1]; number of patients of 30, allergic rhinitis, no recurrence for 60 days) of the same compound?
A: 0

Q: And the “Total effective rate (%)” value (patients with urticaria; cured rate+markedly effective rate+effective rate, chronic urticaria)?
A: 53.57%

Q: What about the Cured (patients with urticaria; [4]) of the same compound?
A: 0

Q: What about the Ineffective (patients with urticaria; [4]) of the same compound?
A: 13

Q: And the Effective (patients with urticaria; number of patients of 28, wheal subsided by 50% to 80%)?
A: 6

Q: And the Markedly effective (patients with urticaria; number of patients of 28, wheal subsided by 80% or more)?
A: 9

Q: For `O=C(O)c1cc(/N=N/c2ccc(S(=O)(=O)Nc3ccccn3)cc2)ccc1O` [sulfasalazine enteric tablets, sulfasalazine], which Effective [2] is on record?
A: 5

Q: What about the Ineffective [2] of the same compound?
A: 6

Q: What about the Markedly effective [2] of the same compound?
A: 2
